Data as given in patent US10322112B2, “Compound combinations for attenuation of bacterial virulence” (priority 2016, dated 2019).

Legend:
[1] = molecular target: T1, LasR (Pseudomonas aeruginosa, UniProt P25084); test: E. coli reporter gene primary antagonism assay, LasR; assay type: cell-based; conditions: compounds at 100 mm against 2 nm OdDHL; E. coli beta-galactosidase reporter strain JLD271/pJN105L/pSC11; untreated culture = 100%; negative values indicate receptor agonism; error ±10%
T1 construct: expressed in transfected cells; host or cells: E. coli JLD271
T1 sequence (P25084 whole entry): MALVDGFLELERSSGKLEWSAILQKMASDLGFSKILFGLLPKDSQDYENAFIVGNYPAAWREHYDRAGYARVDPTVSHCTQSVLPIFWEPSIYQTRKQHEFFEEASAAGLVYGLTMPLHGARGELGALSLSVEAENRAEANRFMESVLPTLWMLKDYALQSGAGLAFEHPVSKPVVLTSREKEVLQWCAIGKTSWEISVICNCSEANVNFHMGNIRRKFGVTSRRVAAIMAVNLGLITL
Procedure: (§1) Percent agonism of a given non-native inducer in a given bacterium and QS system receptor is measured with resepct to the maximum level of agonism (activation) by the native ligand of that receptor in the given bacterium. Percent antagonism is measured in competitive assays. The QS system of interest is activated to 100% with added or endogenous native ligand and the % antagonism of the non-native inducer is assessed with respect to 100% activation by the native inducer. The native ligand which induces LasR is OdDHL, which induces RhlR is BHL and which induces PqsR is PQS. As described herein and in cited references, assays for assessment of % agonism or % atangonism may be performed in E. coli systems (heterologous) or in the bacterium of interest, e.g., Pseudomonas. Dependent upon the assay system employed native ligand may be endogenously present or it may be exogenously supplied to the assay system. […] In antagonism assays using the native strains with functional QS systems, e.g., those of P. aeruginosa, endogenous native ligand is made in the system, so no native ligand is added. In native strains having one or more non-functional QS systems (mutant strains), e.g., P. aeruginosa mutants with non-functional QS systems, native ligand is added at about 10-100× the EC50 of the native ligand. In the agonism assay, native ligand is added as a control. Details of the assays are provided herein in Example 9 and in references cited in Example 9.

[2] = molecular target: T2, RhlR (Pseudomonas aeruginosa, UniProt P54292); test: E. coli reporter gene antagonism assay, RhlR; assay type: cell-based; conditions: compounds at 100 mm in the presence of 10 mm BHL; untreated culture = 100%; error ±10%; selected data reproduced from Welsh et al. 2015
T2 construct: expressed in transfected cells; host or cells: E. coli JLD271
T2 sequence (P54292 whole entry): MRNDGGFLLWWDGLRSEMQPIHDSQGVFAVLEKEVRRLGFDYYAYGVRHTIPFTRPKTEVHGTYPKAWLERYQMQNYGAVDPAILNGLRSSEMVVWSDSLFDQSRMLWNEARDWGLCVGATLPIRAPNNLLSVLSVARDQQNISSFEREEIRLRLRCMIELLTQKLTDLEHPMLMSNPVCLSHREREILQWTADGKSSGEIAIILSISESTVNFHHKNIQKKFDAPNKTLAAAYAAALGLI
Procedure: as §1

[3] = molecular target: T3, QscR (Pseudomonas aeruginosa, UniProt G3XD77); assay type: cell-based; design: expressed in transfected cells; host or cells: E. coli JLD271; conditions: compounds at 100 mm against 15 nm OdDHL; E. coli reporter strain JLD271/pJN105Q/pSC11-Q; untreated culture = 100%; error ±10%
T3 sequence (G3XD77 entry or part of it): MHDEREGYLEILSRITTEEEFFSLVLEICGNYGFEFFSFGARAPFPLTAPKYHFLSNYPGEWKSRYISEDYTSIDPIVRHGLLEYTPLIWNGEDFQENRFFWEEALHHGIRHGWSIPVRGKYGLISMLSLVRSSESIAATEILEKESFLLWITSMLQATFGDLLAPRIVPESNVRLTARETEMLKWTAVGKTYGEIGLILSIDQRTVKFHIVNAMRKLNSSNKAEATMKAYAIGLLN
Excerpt: (§2) Construction of pSC11-Q: A 348 bp fragment spanning the upstream region of PA1897 (¢304 to +43 relative to the PA1897 translationalstart codon) was amplified from plasmid pJL101*by using primers 5′-GAATAT GGATCC TCTCTC CGCAGA TACCTG-3′ (BamHI site underlined) SEQ ID NO:5 and 5′-GCTATT GAATTC TGAAGA TGAATA GCGCCAC-3′ (EcoRI site underlined) SEQ ID NO:6. The PCR-generated fragment was digested with EcoRI and BamHI and subsequently ligated into EcoRI/BamHI-digested pPROBE-KT to generate pPROBE-KQ2. […] CGCC-3′ (BamHI site underlined) SEQ ID NO:8. The PCR-generated fragment was digested with SalI and BamHI and subsequently ligated into SalI/BamHI-digested pSC11 to generate pSC11-Q.
(§3) E. coli reporter gene assays: Primary assays for RhlR, LasR, and QscR activity in E. coli JLD271 reporter (beta-galactosidase) strains were performed as reported by Welsh et al. 2015, with the following modifications:
(§4) For all primary and dose-response antagonism assays, the concentration of native ligand utilized was approximately equal to its EC50 value in each bacterial reporter strain. For RhlR, LasR, and QscR primary antagonism assays, synthetic ligand (100 mm) was screened against BHL (10 mm), OdDHL (2 nm), and OdDHL (15 nm), respectively. For RhlR, LasR, and QscR primary agonism assays, synthetic compound (100 mm) was screened alongside and compared to the natural ligand (900 mm BHL or 100 mm OdDHL) for the receptor. As part of the beta-galactosidase assay protocol, plates to which CPRG substrate had been added were incubated at either 25° C. (LasR assay) or 30° C. (RhlR and QscR assays) until positive control wells developed a deep red color (10 min for LasR, 30 min for RhlR, and 60 min for QscR). Dose-response reporter gene assays were performed according to these protocols by using varying concentrations of compound.

[4] = molecular target: T1, LasR; test: E. coli reporter gene primary agonism assay, LasR; assay type: cell-based; conditions: compounds at 100 mm; E. coli reporter strain JLD271/pJN105L/pSC11; 100 mm OdDHL = 100%; error ±10%
Procedure: as §1

[5] = molecular target: T2, RhlR; test: E. coli reporter gene primary agonism assay, RhlR; assay type: cell-based; conditions: compounds at 100 mm; 900 mm BHL = 100%; error ±10%; selected data reproduced from Welsh et al., 2015
Procedure: as §1

[6] = molecular target: T3, QscR; conditions: compounds at 100 mm; E. coli reporter strain JLD271/pJN105Q/pSC11-Q; 100 mm OdDHL = 100%; error ±10%
Excerpt: as §2, §3, §4

SMILES | Inhibition [%] LasR [1] [%] | Inhibition [%] RhlR [2] [%] | Inhibition [%] QsCR [3] [%] | Activation [%] LasR [4] [%] | Activation [%] RhlR [5] [%] | Activation [%] QscR [6] [%]
O=C(Cc1ccc(Br)cc1)N[C@@H]1CCOC1=O [B4] | 15 | 66 | 37 | – | – | –
O=C(CC1CCCC1)N[C@H]1CCOC1=O [B12] | – | – | – | −10 | 79 | 12
O=C(Cc1ccccc1)N[C@H]1CCOC1=O [C1] | – | – | – | −3 | 84 | 3
O=C(Cc1ccc(F)cc1)N[C@H]1CCOC1=O [C2] | – | – | – | 12 | 71 | 10
O=C(Cc1cccc(F)c1)N[C@H]1CCOC1=O [C3] | – | – | – | −2 | 79 | 13
O=C(Cc1ccccc1F)N[C@H]1CCOC1=O [C4] | – | – | – | −4 | 66 | 0
O=C(Cc1cccc(Cl)c1)N[C@H]1CCOC1=O [C6] | – | – | – | 30 | 82 | 30
O=C(Cc1cccc(Br)c1)N[C@H]1CCOC1=O [C8] | – | – | – | 44 | 80 | 33
O=C(Cc1ccc(I)cc1)N[C@H]1CCOC1=O [C10] | 58 | 84 | −79 | – | – | –
O=C(Cc1cccc(I)c1)N[C@H]1CCOC1=O [C11] | – | – | – | 56 | 63 | 34
O=C(Cc1ccc([N+](=O)[O-])cc1)N[C@H]1CCOC1=O [C13] | 91 | 60 | 14 | – | – | –
O=C(Cc1c(F)c(F)c(F)c(F)c1F)N[C@H]1CCOC1=O [C16] | 76 | 66 | 74 | – | – | –
Cc1ccc(CC(=O)N[C@H]2CCOC2=O)cc1 [C19] | 81 | 87 | 64 | – | – | –
O=C(Cc1ccc(C(F)(F)F)cc1)N[C@H]1CCOC1=O [C20] | 93 | 86 | 26 | – | – | –
O=C(COc1ccc(OC(F)(F)F)cc1)N[C@H]1CCOC1=O [D15] | −80 | 61 | 4 | – | – | –
CSc1ccc(CC(=O)N[C@H]2CCOC2=O)cc1 [E6] | 85 | 78 | 24 | – | – | –
O=C(Cc1ccc(SC(F)(F)F)cc1)N[C@H]1CCOC1=O [E8] | 23 | 65 | 40 | – | – | –
O=C(Cc1ccc(Cl)c(Cl)c1)N[C@H]1CCOC1=O [E11] | 28 | 62 | 15 | – | – | –
O=C(Cc1ccc2ccccc2c1)N[C@H]1CCOC1=O [E12] | 81 | 77 | 60 | – | – | –
Cc1ccc(OCC(=O)N[C@H]2CCOC2=O)cc1 [E15] | 84 | 75 | 33 | – | – | –
COc1ccc(OCC(=O)N[C@H]2CCOC2=O)cc1 [E17] | 83 | 66 | 36 | – | – | –
O=C(COc1ccc(Br)cc1)N[C@H]1CCOC1=O [E21] | 31 | 66 | 20 | – | – | –
O=C(COc1ccc(C(F)(F)F)cc1)N[C@H]1CCOC1=O [E23] | −49 | 64 | 22 | – | – | –
CSc1ccc(CCC(=O)N[C@H]2CCOC2=O)cc1 [E34] | −52 | 62 | −190 | – | – | –
O=C(CCCC1CCCCC1)N[C@H]1CCOC1=O [S6] | 56 | 69 | 34 | – | – | –
